Experimental data reported in paper PMC4042666 (Bioorganic & medicinal chemistry letters, 2013).

Key:
[1] = biological target: HCV NS3/4A protease genotype 1b mutant A156T (Hepatitis C virus genotype 1b, UniProt Q9WMX2, A1182T); experiment: biochemical
Thrombin = Thrombin (Homo sapiens, UniProt P00734); experiment: Effect on human protease Thrombin; assay type: biochemical
[2] = system: HCV NS3/4A protease genotype 1b mutant A156T; experiment: biochemical; details: A156T vs wild type
Plasmin = Plasmin (Homo sapiens, UniProt P00747); experiment: Effect on human protease Plasmin; assay type: biochemical; details: read-out: Plasmin IC90
[3] = system: HCV Replicon in Huh7 cells; experiment: Inhibition of HCV RNA replication, subgenomic HCV replicon system in Huh7 cells; assay type: cell-based, Hepatitis C virus
[4] = system: CEM cells (a human-T-cell-derived cell line); experiment: Cytotoxicity in CEM cells; assay type: cell-based
[5] = system: primary human PBM (peripheral blood mononuclear) cells; experiment: Cytotoxicity in PBM cells; assay type: cell-based
[6] = system: HCV NS3/4A protease genotype 1b mutant A156S; assay type: biochemical; details: A156S vs wild type
[7] = system: HCV NS3/4A protease genotype 1b mutant V170A; assay type: biochemical; details: V170A vs wild type
[8] = system: Vero cells (African green monkey kidney epithelial cells); experiment: Cytotoxicity in Vero cells; assay type: cell-based
Huh7 cells = experiment: Cytotoxicity in Huh7 cells
[9] = system: HCV NS3/4A protease genotype 1b mutant D168V; assay type: biochemical; details: D168V vs wild type
[10] = system: HCV NS3/4A protease genotype 1b mutant R155K; assay type: biochemical; details: R155K vs wild type

Sequence of Plasmin (P00747 581-810 limits assumed): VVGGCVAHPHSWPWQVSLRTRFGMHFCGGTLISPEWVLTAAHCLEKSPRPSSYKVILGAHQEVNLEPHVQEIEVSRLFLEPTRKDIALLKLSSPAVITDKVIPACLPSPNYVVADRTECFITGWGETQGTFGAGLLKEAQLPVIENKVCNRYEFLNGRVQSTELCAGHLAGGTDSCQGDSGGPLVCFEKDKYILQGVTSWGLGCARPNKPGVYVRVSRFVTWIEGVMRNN
Sequence of Plasmin (P00747 97-580 partner limits assumed): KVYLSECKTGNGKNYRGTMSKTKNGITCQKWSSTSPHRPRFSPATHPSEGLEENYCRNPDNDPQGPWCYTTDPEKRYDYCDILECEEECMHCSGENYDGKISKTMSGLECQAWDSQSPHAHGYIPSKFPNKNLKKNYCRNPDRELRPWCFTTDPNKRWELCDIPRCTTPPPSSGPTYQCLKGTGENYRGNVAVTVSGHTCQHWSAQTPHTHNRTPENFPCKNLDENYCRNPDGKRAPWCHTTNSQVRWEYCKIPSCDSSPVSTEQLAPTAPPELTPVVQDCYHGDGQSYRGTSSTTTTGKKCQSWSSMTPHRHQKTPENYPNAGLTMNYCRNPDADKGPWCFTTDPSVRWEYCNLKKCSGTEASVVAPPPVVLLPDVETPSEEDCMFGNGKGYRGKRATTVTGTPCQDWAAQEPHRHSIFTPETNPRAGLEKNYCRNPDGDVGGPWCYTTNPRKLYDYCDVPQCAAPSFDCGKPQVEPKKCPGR

## CC(C)(C)NC(=O)N[C@H](C(=O)N1C[C@H]2[C@@H]([C@H]1C(=O)NC(CC1CCC1)C(=O)C(N)=O)C2(C)C)C(C)(C)C (stereo partly drawn) [Compound 1, boceprevir]
[1]
  EC90: > 100 µM
Thrombin
  Inhibition of thrombin, in words: submicromolar inhibition

## CCC[C@H](NC(=O)[C@@H]1[C@H]2CCC[C@H]2CN1C(=O)[C@@H](NC(=O)[C@@H](NC(=O)c1cnccn1)C1CCCCC1)C(C)(C)C)C(=O)C(=O)NC1CC1 [Compound 2, telaprevir]
[1]
  EC90: > 100 µM
[2]
  Fold Increase (FI) of EC90: > 130
Plasmin
  IC90: 110 ± 32 µM

## CCCC(NC(=O)C1N(C(=O)[C@@H](NC(=O)[C@@H](NC(=O)c2cnccn2)C2CCCCC2)C(C)(C)C)CC12Cc1ccccc1C2)C(=O)C(=O)NC1CC1 (stereo partly drawn) [Compound 37b]
[3]
  Anti-HCV activity, in words: complete loss of potency

## CCCC(NC(=O)C1CCN1C(=O)[C@@H](NC(=O)[C@@H](NC(=O)c1cnccn1)C1CCCCC1)C(C)(C)C)C(=O)C(=O)NC1CC1 (stereo partly drawn) [Compound 37d]
[3]
  Anti-HCV activity, in words: inactive

## CCCC(NC(=O)C1N(C(=O)[C@@H](NC(=O)[C@@H](NC(=O)c2cnccn2)C2CCCCC2)C(C)(C)C)CC12CCCCC2)C(=O)C(=O)NC1CC1 (stereo partly drawn) [Compound 37h]
[4]
  Toxicity in CEM cells, in words: toxicity in the micromolar range
[5]
  Toxicity in PBM cells, in words: toxicity in the micromolar range
[6]
  Fold Increase (FI) of EC90: > 10
[1]
  EC90: > 100 µM
[2]
  Fold Increase (FI) of EC50: > 130
  Fold Increase (FI) of EC90: > 10
[7]
  Fold Increase (FI) of EC50: > 1.2
[8]
  Toxicity in Vero cells, in words: toxicity in the micromolar range

## CCCC(NC(=O)C1N(C(=O)[C@@H](NC(=O)NC2CCCCC2)C(C)(C)C)CC12Cc1ccccc1C2)C(=O)C(=O)NC1CC1 (stereo partly drawn) [Compound 41e]
Huh7 cells
  Toxicity toward Huh7 cells, in words: toxic

## CC(C)(C)[C@H](NC(=O)NC1CCCCC1)C(=O)N1CC2(Cc3ccccc3C2)C1C(=O)NC(CC1CCC1)C(=O)C(=O)NC1CC1 (stereo partly drawn) [Compound 41f]
Huh7 cells
  Toxicity toward Huh7 cells, in words: toxic

## CC[C@@H]1C[C@]1(NC(=O)[C@@H]1C[C@@H]2CN1C(=O)[C@H](C(C)(C)C)NC(=O)OCC(C)(C)CCCCc1cccc3c1CN(C3)C(=O)O2)C(=O)NS(=O)(=O)C1CC1 [MK-7009, vaniprevir]
[6]
  Fold Increase (FI) of EC50: < 0.16
[9]
  Fold Increase (FI) of EC50: > 160
  Fold Increase (FI) of EC90: > 77
[1]
  EC90: > 1 µM
[2]
  Fold Increase (FI) of EC90: > 77
[10]
  Fold Increase (FI) of EC50: > 160
  Fold Increase (FI) of EC90: > 77
